US20060223792A1, “Phenyl and pyridyl LTA4H modulators” (priority 2005, published 2006)
Like-named read-outs stand apart in the source and are kept apart here.

Columns and labels:
[1] = tested on: LTB4 production by calcium ionophore-stimulated murine blood; experiment: LTB4 production by calcium ionophore-stimulated murine blood for LTA4H inhibitor activity; format: cell-based, CD-1 mice; conditions: diluted CD-1 mouse whole blood, calcium ionophore A23187, LTB4 by enzyme-linked immunoassay
Protocol: LTB4 Production by Calcium Ionophore-Stimulated Murine Blood for LTA4H Inhibitor Activity
CD-1 mice were sacrificed, and blood was collected in heparin-containing syringes by cardiac puncture. The blood was diluted 1:15 with RPMI-1640 medium, and 200-μL aliquots of the diluted blood were added to wells of a 96-well microtiter plate. LTA4H inhibitor test compounds were prepared at different concentrations in RPMI-1640 medium containing […], and 20 μL of each test solution was added to a well containing diluted whole blood (final DMSO concentration of 0.1%). After the microtiter plate contents were incubated for 15 min at 37° C. in a humidified incubator, calcium ionophore A23187 (Sigma Chemical Co., St. Louis, Mo.) was added to each sample well (final concentration=20 ng/mL). The incubation was continued under the same conditions for an additional 10 min to allow LTB4 formation. The reaction was terminated by centrifugation (833×g, 10 min at 4° C.), and supernatants were analyzed for LTB4 by a commercially available enzyme-linked immunoassay (Cayman Chemical Co.) according to the manufacturer's instructions. Positive controls, under essentially identical conditions but without addition of an inhibitor compound, and negative unstimulated controls, containing all assay components except calcium ionophore, were routinely run in each experiment. IC50 values were determined by fitting the activity data at different compound concentrations to a 4-parameter equation using the Grafit program (Erithacus software).

[2] = tested on: neutrophil influx (myeloperoxidase, MPO); experiment: Murine arachidonic acid-induced inflammation model: neutrophil influx in ear (myeloperoxidase activity); format: in vivo, female Balb/c mice; conditions: Mus musculus, read-out: % Inh. MPO
Protocol: Murine Arachidonic Acid-Induced Inflammation Model
LTA4H inhibitor compounds of the present invention were dissolved in 20% cyclodextran/H2O at a concentration of 3 mg/mL. The solutions were administered by oral gavage to female Balb/c mice weighing approximately 20 grams each (0.2 mL per mouse, 30 mg of LTA4H inhibitor compound per kg). Sixty minutes after being administered an LTA4 inhibitor, each mouse received topical application of 20 μL of arachidonic acid (100 mg/mL in acetone) to the left ear and 20 μL of acetone only to the right ear. After 3 h, the mice were sacrificed, blood was withdrawn in heparinized syringes, and 8 mm ear biopsies were taken. Ear biopsies were weighed to determine edema and then frozen at −80° C. until needed for determination of neutrophil influx.
Neutrophil influx was quantified by measuring the activity of myeloperoxidase (MPO), a neutrophil-specific enzyme. The ear biopsies were homogenized in 0.5 mL extraction buffer (0.3 M sucrose, 0.22% (w/v) hexadecyl trimethyl ammonium bromide (CTAB), and 2.5 mM citrate prepared from 0.5 M citrate stock solution (pH 5.0)). Debris was removed by centrifugation at 14000×g for 10 min. Aliquots of 10 μL of the resulting supernatant were added to wells of a microtiter plate, along with 90-μL aliquots of dilution buffer (10 mM citrate, 0.22% CTAB), followed by addition of 20 μL TMB liquid substrate system (Sigma Chemical Co.) to each sample well. The microtiter plate contents were held at rt for 1 h. The reaction was stopped by addition of 100 μL 1 M H2SO4 to each sample well, and the myeloperoxidase activity in each sample was determined from the absorbance at 405 nm. The background value from the right ear, treated only with acetone, was subtracted from that for the left ear, treated with arachidonic acid in acetone, for each animal. The percent inhibition of neutrophil influx (% lnh. MPO) by compounds of the invention was determined by comparison to animals treated identically, except that the solution administered by oral gavage was devoid of inhibitor compound.

[3] = 30 mg/kg oral gavage 60 min before topical arachidonic acid to ear, female Balb/c mice, ear biopsies after 3 h

Structure (SMILES) | IC50 [1] [µM] | inhibition in vivo at 30 mg/kg [2, 3] [%] | inhibition in vivo at 30 mg/kg ([2]; po, 3 h) [%]
O=C1CCCN1C1CCN(Cc2ccc(OCCc3ccccc3)cc2)CC1 [Example 99, 1-[1-(4-Phenethyloxy-benzyl)-piperidin-4-yl]-pyrrolidin-2-one] | 0.123 | 17 | 
CN(C(=O)Oc1ccc(OCCN2CCC(O)(c3ccccc3)CC2)cc1)c1ccccc1 [Example 40, Methyl-phenyl-carbamic acid 4-[2-(4-hydroxy-4-phenyl-piperidin-1-yl)-ethoxy]-phenyl ester] | 0.15 |  | 75
O=C(O)C1CCN(CCOc2ccc(OCCCc3ccccc3)cc2)CC1 [Example 117, 1-{2-[4-(3-Phenyl-propoxy)-phenoxy]-ethyl}-piperidine-4-carboxylic acid] | 0.079 | 62 | 
O=C(O)C1CCN(CCc2ccc(OCCc3ccccc3)cc2)CC1 [Example 81, 1-[2-(4-Phenethyloxy-phenyl)-ethyl]-piperidine-4-carboxylic acid] | 0.181 | 64 | 

The next compounds have a lower IC50 [1] than those just listed; values first:

IC50 [1] [µM] | Structure (SMILES) | inhibition in vivo at 30 mg/kg [2, 3] [%] | inhibition in vivo at 30 mg/kg ([2]; po, 3 h) [%]
0.01 | O=C(O)C1CCN(Cc2ccc(OCCCc3ccccc3)cc2)CC1 [Example 112, 1-[4-(3-Phenyl-propoxy)-benzyl]-piperidine-4-carboxylic acid] | 79 | 
0.007 | O=C(O)C1CCN(Cc2ccc(OCCc3ccccc3)cc2)CC1 [Example 96, 1-(4-Phenethyloxy-benzyl)-piperidine-4-carboxylic acid] | 95 | 
